Results: patent publication US5235061A, “Fungicidal (1H-1,2,4-triazolyl)disilaalkanes” (priority 1991, dated 1993)
Where “and” joins values, the source holds several entries; their conditions need not be identical. Equal entries are not always repeated.

Key:
Test in all cases: In vitro percent disease control (radii of spore growth on agar)
Type in all cases: cell-based
Glomerella cingulata = conditions: for inhibition of growth at 50 ppm / inhibition of growth at 100 ppm: Colletotrichum gloeosporioides, read-out: % controlled, Glo.
Experimental: (§1) The compounds of this invention were dissolved respectively in acetone in an amount equal to 10% of the final volume and then in purified water at the concentration of 100 ppm and 50 ppm.
(§2) Each of the solution was mixed with potato-sucrose-agar medium in a 6" petri dish and one of the fungi was spotted at the center of the dish. The dish was incubated in growth room for several days. The percent disease control was derived from the radii of spore growth. The screening tests in vitro condition are well-known to those skilled in the art.
(§3) The following fungi were used for the screening.
5) Glo.; Glomerella cingulata

Botry tris cinerea = conditions: for inhibition of growth at 50 ppm / inhibition of growth at 100 ppm: read-out: % controlled, Bo ci.
Experimental: as §1, §2, §3
10) Bo.ci.; Botry tris cinerea

Alternaria mali = conditions: for inhibition of growth at 50 ppm / inhibition of growth at 100 ppm: Alternaria mali, read-out: % controlled, Al.
Experimental: as §1, §2, §3

Rhizopus sp. = conditions: for inhibition of growth at 50 ppm / inhibition of growth at 100 ppm: Rhizopus, read-out: % controlled, Rhi. sp.
Experimental: as §1, §2, §3

Phytophthora capsisi = conditions: Phytophthora, read-out: % controlled, Phy ca.
Experimental: as §1, §2, §3
2) Phy. ca.; Phytophthora capsisi

Rhizoctonia solani = conditions: for inhibition of growth at 50 ppm / inhibition of growth at 100 ppm: Rhizoctonia solani, read-out: % controlled, Rhy. so.
Experimental: as §1, §2, §3
7) Rhi.so.; Rhizoctonia solani

Fusarium moniliforme = test system: Fusarium moniliforme
Experimental: as §1, §2, §3
8) Fu.mo.; Fusarium moniliforme

Physalospora baccae = conditions: for inhibition of growth at 50 ppm / inhibition of growth at 100 ppm: read-out: % controlled, Phy ba.
Experimental: as §1, §2, §3
3) Phy. ba.; Physalospora baccae

Pyricalaria oryzae = conditions: for inhibition of growth at 50 ppm: read-out: % controlled, Py. or., 50 ppm; for inhibition of growth at 100 ppm: read-out: % controlled, Py. or., 100 ppm
Experimental: as §1, §2, §3
6) Py.or.; Pyricalaria oryzae

[1] = test system: Botryosphaeria dothidea Macrophoma sp.; conditions: for inhibition of growth at 50 ppm / inhibition of growth at 100 ppm: Botryosphaeria dothidea, read-out: % controlled, Bo.do (Ma.)
Experimental: as §1, §2, §3
4) Bo.do(Ma); Botryosphaeria dothidea Macrophoma sp.

Compound	inhibition of growth at 50 ppm (Glomerella cingulata; 50 ppm) [%]	inhibition of growth at 100 ppm (Glomerella cingulata; 100 ppm) [%]	inhibition of growth at 50 ppm (Botry tris cinerea; 50 ppm) [%]	inhibition of growth at 100 ppm (Botry tris cinerea; 100 ppm) [%]	inhibition of growth at 50 ppm (Alternaria mali; 50 ppm) [%]	inhibition of growth at 100 ppm (Alternaria mali; 100 ppm) [%]	inhibition of growth at 50 ppm (Rhizopus sp.; 50 ppm) [%]	inhibition of growth at 100 ppm (Rhizopus sp.; 100 ppm) [%]	inhibition of growth at 50 ppm (Phytophthora capsisi) [%]	inhibition of growth at 100 ppm (Phytophthora capsisi) [%]	inhibition of growth at 50 ppm (Rhizoctonia solani; 50 ppm) [%]	inhibition of growth at 100 ppm (Rhizoctonia solani; 100 ppm) [%]	% controlled, Fu. mo. (Fusarium moniliforme; 50 ppm)	% controlled, Fu. mo. (Fusarium moniliforme; 100 ppm)	inhibition of growth at 50 ppm (Physalospora baccae; 50 ppm) [%]	inhibition of growth at 100 ppm (Physalospora baccae; 100 ppm) [%]	inhibition of growth at 50 ppm (Pyricalaria oryzae) [%]	inhibition of growth at 100 ppm (Pyricalaria oryzae) [%]	% controlled, Glo. (Glomerella cingulata; 50 ppm) [%]	% controlled, Glo. (Glomerella cingulata; 100 ppm) [%]	further results
C=CC[Si](Cn1cncn1)(C[Si](CC=C)(c1ccccc1)c1ccc(-c2ccccc2)cc1)c1ccc(F)cc1 (stereo not drawn) [4-(4-fluorophenyl)-6-phenyl-6-(4-phenylphenyl)-4,6-disila-4-(1H-1,2,4-triazol-1-ylmethyl)-1,8-nonadiene]	80	86	90	90	72	78	50	58	70	72	60	90	61%	65%	65	69	100	100			
C[Si](C)(C[Si](Cn1cncn1)(c1ccc(F)cc1)c1ccc(-c2ccccc2)cc1)c1ccc(F)cc1 (stereo not drawn) [2,4-bis(4-fluorophenyl)-2-(4-phenylphenyl)-4-methyl-2,4-disila-1-(1H-1,2,4-triazol-1-yl)pentane]	87	87							12	14			46% and 41%	46% and 45%					76	78	% controlled, Bo ci. (Botry tris cinerea; 100 ppm): 90% and 47%; % controlled, Al. (Alternaria mali; 50 ppm): 75% and 38%; % controlled, Al. (Alternaria mali; 100 ppm): 79% and 46%; % controlled, Bo.do (Ma.) ([1]; 50 ppm): 79% and 43%; % controlled, Bo.do (Ma.) ([1]; 100 ppm): 79% and 51%; % controlled, Py. or. (Pyricalaria oryzae; 50 ppm): 100% and 50%; % controlled, Py. or. (Pyricalaria oryzae; 100 ppm): 100% and 50%
2-(4-chlorophenyl)-2-(4-fluorophenyl)-2,4-dimethyl-1-(1H-1,2,4-triazol-1-yl)pentane													46%	46%					87	87	% controlled, Bo ci. (Botry tris cinerea; 50 ppm): 90%; % controlled, Bo ci. (Botry tris cinerea; 100 ppm): 90%; % controlled, Al. (Alternaria mali; 50 ppm): 75%; % controlled, Al. (Alternaria mali; 100 ppm): 79%; % controlled, Rhi. sp. (Rhizopus sp.; 50 ppm): 50%; % controlled, Rhi. sp. (Rhizopus sp.; 100 ppm): 50%; % controlled, Bo.do (Ma.) ([1]; 50 ppm): 79%; % controlled, Bo.do (Ma.) ([1]; 100 ppm): 79%; % controlled, Rhy. so. (Rhizoctonia solani; 50 ppm): 96%; % controlled, Rhy. so. (Rhizoctonia solani; 100 ppm): 96%; % controlled, Phy ba. (Physalospora baccae; 50 ppm): 69%; % controlled, Phy ba. (Physalospora baccae; 100 ppm): 69%; % controlled, Py. or. (Pyricalaria oryzae; 50 ppm): 100%; % controlled, Py. or. (Pyricalaria oryzae; 100 ppm): 100%
C=CC[Si](CC=C)(Cn1cncn1)C[Si](CC=C)(c1ccc(F)cc1)c1ccc(-c2ccccc2)cc1 (stereo not drawn) [6-(4-fluorophenyl)-6-(4-phenylphenyl)-4-(2-propenyl)-4,6-disila-4-(1H-1,2,4-triazol-1-ylmethyl)-1,8-nonadiene]	100	100	100	100	100	100	100	100	40	50	100	100			100	100	100	100			inhibition of growth at 50 ppm ([1]; 50 ppm): 100%; inhibition of growth at 100 ppm ([1]; 100 ppm): 100%
C[Si](C)(C[Si](C)(Cn1cncn1)c1ccc(F)cc1)c1ccc(-c2ccccc2)cc1 (stereo not drawn) [2-(4-fluorophenyl)-4-(4-phenylphenyl)2,4-dimethyl-2,4-disila-1-(1H-1,2,4-triazol-1-yl)pentane]	87	87	90	90	75	79	50	50			96	96	46%	46%	69	69	100	100			inhibition of growth at 50 ppm ([1]; 50 ppm): 79%; inhibition of growth at 100 ppm ([1]; 100 ppm): 79%
